Patent publication US8778906B2, “Modulation of line-1 reverse transcriptase” (ALT Solutions, Inc., priority 2003, dated 2014)

Tests used:
Saos-2 cells = assay: AZT treatment of ALT cells, flow cytometry for telomere length (PNA probe) and cell cycle (PI); assay type: cell-based, human; details: Saos-2, 0.2 μM AZT, 14 days
Experimental: (§1) Telomere length in AZT treated and untreated cell lines was measured by flow cytometry with a telomere-specific peptide nucleic acid (PNA) probe^22,23. To determine cell cycle distribution, cells were stained with propidium iodide (PI)^22. […] AZT at the chosen concentration had no effect on telomere length or cell cycle distribution in the HeLa cells (not shown).
(§2) Cell lines: All cell lines used in this study were obtained from American Type Culture Collection (Rockville, Md.). The cells origins included osteosarcoma (Saos-2 and U-2 OS), liver ([…]) and uterine cervix (HeLa). Cells were cultured following ATCC recommendation. For treatment of the cells with AZT, the media was supplemented with 0.2 μM of 3′-azido-2′,3′-dideoxythymidine (Sigma)^28.
(§3) Telomere length measurement by flow cytometry: Cell were stained with telomere specific FITC conjugated (C3TA2)3 PNA (Applied Biosystems) probe and contrastained with 0.06 μg/ml PI as described^21.

U-2 OS cells = assay: as above; assay type: cell-based, human
Experimental: as §1
Rate of DNA synthesis was determined by incorporation of 5-bromodeoxyuridine (BdU)^24.
as §2, §3

[1] = tested on: WM1175 (malignant melanoma) or HUT292DM (lung cancer) cells; assay: Telomerase-positive xenograft tumors in immunodeficient mice treated with AZT; assay type: in vivo; details: AZT at the dose tested (total daily dose 10 mg/kg)
Experimental: After induction of tumors, mice in the experimental groups may be treated with AZT. Mice may be injected i.p. twice a day with solution of AZT in PBS with a total daily dose of 10 mg/kg. Mice in control group may be injected with PBS. Alternatively, AZT at the same daily dose may be given in drinking water. […] As a separate set of controls, telomerase-positive tumors in nude mouse may be induced by injecting the immunodeficient mice with WM1175 (malignant melanoma) or HUT292DM (lung cancer) cells instead of the transformed IIICF/c fibroblast cells.

Q: With `Cc1cn([C@H]2C[C@H](N=[N+]=[N-])[C@@H](CO)O2)c(=O)[nH]c1=O` [AZT, 3′-azido-2′,3′-dideoxythymidine] as the compound, how does the apoptosis (Saos-2 cells) read?
A: massive apoptosis

Q: What about the telomere length (Saos-2 cells) of the same compound?
A: telomere shortening

Q: And the cell cycle distribution (Saos-2 cells; PI staining)?
A: G2 arrest

Q: And the “DNA content (PI staining)” value (U-2 OS cells; AZT treated cells at later stages of treatment, compared to untreated cells)?
A: higher DNA content

Q: And the “time of AZT treatment after which changes in cell cycle distribution, DNA synthesis and telomere length could be detected” value (U-2 OS cells; U-2 OS, 0.2 μM AZT)?
A: 10 days

Q: What about the apoptosis (U-2 OS cells; U-2 OS, 0.2 μM AZT, 14 days) of the same compound?
A: massive apoptosis

Q: What about the telomere length (U-2 OS cells; U-2 OS, 0.2 μM AZT, 14 days) of the same compound?
A: telomere shortening

Q: What about the cell cycle distribution (U-2 OS cells; U-2 OS, 0.2 μM AZT, 14 days, PI staining) of the same compound?
A: G2 arrest

Q: And the “inhibition of telomerase-positive tumors” value [1]?
A: cannot be inhibited
